Laboratory results from patent US10149644B2, “Curcumin derivatives for amyloid-β plaque imaging” (The General Hospital Corporation, priority 2008, dated 2018).
Entries after “also recorded” stand apart in the source; their conditions may differ. Read-outs that look alike come from different tables or passages of the source.

Key:
Aβ plaques = assay: AD tissue staining of APP-PS1 brain sections; settings: 25 micron sections, 12-month old APP-PS1 mice
Source text: The inventors conducted tissue staining with 25 micron brain sections from 12-month old APP-PS1 mice by all the compounds listed in FIG. 12.

Tg2576 mice = assay: In vivo NIR imaging
Method: In vivo NIR imaging was performed using Kodak Imaging station 2000MM. For fluorescence excitation, three laser diodes at 660 nm with a total power of 10 mW/cm2 have been used yielding a uniform illumination of the whole animal. The fluorescent light emitted from the sample (mouse) was detected by a charge-coupled device (CCD) camera (Hamamatsu ORCA) equipped with a focusing lens system (macro lens 60 mm, 1:2.8, Nikon). The image matrix comprised of 532×256 pixels. A bandpass filter was used for the selection of the detection wavelength (700 nm). Integration time default was selected at 30 s. Images were acquired Kodak 1DTM 3.6.3 Network software and analysed using the Kodak™ 1D Analysis software.
Mice (n=3 for Tg2576 and n=3 for the littermates) were shaved before background imaging, and were i.v. injected CRANAD-2 (5.0 mg/kg) for each mouse. Fluorescence signals from the brain were recorded at pre-injection, and 10 min., 30 min., 60 min., 120 min., 240 min., and 480 min. after intravenous injection of the probe. To evaluate our imaging results, an ROI was drawn around the brain region, and the data were analyzed by the following modified equation (1) {24}, where Irel(t) is the relative fluorescence intensity at the certain time point, I(t) is the measured ROI value at this time point, I(pre) is the pre-injection background, and I(30) is the reading at 30 min. Since pre-injection background varied in different mice, this equation allowed us to correct for it. Fluorescence intensity decay curves were then generated based on this equation. Irel(t)=(I(t)−I(pre))/(I(30)−I(pre)) (1)
For in vivo specific binding (SP), the calculation was based on equation (2), where Irel(tg) is the relative fluorescence intensity of Tg2576, and Irel(contr) is the relative fluorescence intensity of the control littermates. P values were calculated by Student test. SP(t)={Irel(tg)−Irel(contr)}/Irel(tg) (2) Ex Vivo Histological Correlation.
Transgenic 11-month and 19-month old Tg2576 mice were used to validate the feasibility of CRANAD-2 as NIR imaging probe. Aged-matched wild type littermates served as controls. Images were recorded before and after i.v. injection of CRANAD-2 at 5.0 mg/Kg dosage. […] Furthermore, the signals from 19-month old Tg2576 (FIG. 11D) were remarkably brighter at all time points.
Semi-quantitative analysis of these images was conducted with selected region of interested (ROI), and two sets of data were generated. By normalizing the fluorescence intensity to that of 30 min. after the injection of the probe, we were able to create four well-fit decay curves with non-linear regression for two binding site model (Prism 3.0) for both 11- and 19-months old groups (R2=0.96, 0.97, 0.97, and 0.94 for 11-month control, tg2576, and 19-month control and tg2576 respectively) (FIG. 9A). By normalizing the signal to background fluorescence intensity (Fpre), and using the ratio between fluorescence intensity at time points studied ((F(t)) and Fpre) we could compare the signal change in Tg2576 group to that of the control group (FIGS. 9B,C)(e.g. F(t)/Fpre). Details of these methods are described in Materials and Methods contained herein.

Serum stability test = format: in vitro ADME, human; settings: for recovery at 2 h, 4 μM: human, human serum, 37° C., ethyl acetate extraction
Method: CRANAD-2 (4.0 μM) was incubated at 37° C. for 2 h with 1.0 mL human serum, then ethyl acetate (4×5.0 mL) was added, stirred at room temperature for 10 min., and centrifuged to give clear organic supernatant. The ethyl acetate solution was subjected to fluorescence intensity measurement (F.I.(660 nm)=8713), and the concentration of CRANAD-2 was calculated (0.14 μM) using the equation (Y=474+61.7 X, where Y is F.I., and X is the concentration) generated from standard curve of CRANAD-2 in ethyl acetate. The recovery of CRANAD-2 was about 70%. After the fluorescence measurement, the ethyl acetate solution was concentrated to 40 μL, and 10 μL was injected for HPLC analysis. By HPLC, the recovery of CRANAD-2 was about 75%, which was close to the result from fluorescence measurement.
(§1) Since serum albumin is the most abundant plasma protein, it was important to test whether the probe had any affinity toward this protein. To test this the inventors incubated CRANAD-2 probe with BSA. For controls, the inventors used PBS buffer alone, the probe incubated in PBS alone, and with Aβ40 aggregates. […] In addition, the inventors tested CRANAD-2 stability by incubating the probe (4×10^−6M) with human serum for 2 hours at 37° C.

BSA = target: T1, BSA (Bos taurus, UniProt P02769); assay: BSA interaction; format: binding; settings: BSA 20 μg/mL, probe 5 μM
T1 construct: purchased Sigma
Method: CRANAD-2 was added to a BSA (20 μg/mL) solution to make the final concentration of 5 μM. The fluorescence spectrum of the above mixture was recorded (excited at 590 nm). For comparisons, CRANAD-2 (5 μM) in PBS, PBS alone, and Aβ40 aggregates ([…]) and CRANAD-2 (5 μM) were prepared.
as §1

T1 sequence (P02769 25-607): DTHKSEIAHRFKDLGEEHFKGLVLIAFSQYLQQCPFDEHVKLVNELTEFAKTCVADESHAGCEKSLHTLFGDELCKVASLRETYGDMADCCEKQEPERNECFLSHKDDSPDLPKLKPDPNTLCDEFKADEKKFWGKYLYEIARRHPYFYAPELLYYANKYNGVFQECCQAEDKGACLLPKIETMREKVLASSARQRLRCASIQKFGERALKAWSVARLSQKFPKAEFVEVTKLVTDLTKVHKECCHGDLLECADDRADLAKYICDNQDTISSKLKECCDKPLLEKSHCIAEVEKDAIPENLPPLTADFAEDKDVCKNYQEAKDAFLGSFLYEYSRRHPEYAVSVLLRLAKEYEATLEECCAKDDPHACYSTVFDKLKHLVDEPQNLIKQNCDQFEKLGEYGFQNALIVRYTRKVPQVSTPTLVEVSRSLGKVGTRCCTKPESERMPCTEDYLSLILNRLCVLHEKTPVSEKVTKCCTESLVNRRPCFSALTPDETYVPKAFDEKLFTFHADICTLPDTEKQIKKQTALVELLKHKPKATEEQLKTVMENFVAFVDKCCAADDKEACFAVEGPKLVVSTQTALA

- Stability in serum in vitro (Serum stability test): considerable stability in serum
- recovery at 2 h, 4 μM (Serum stability test; read-out: Recovery after serum incubation, by HPLC): ~75%
- recovery at 2 h, 4 μM (Serum stability test; read-out: Recovery after serum incubation, by fluorescence): ~70%
Structure (SMILES): CN(C)c1ccc(/C=C/C2=CC(/C=C/c3ccc(N(C)C)cc3)=[O+][B-](F)(F)O2)cc1 [CRANAD-2]
- Staining of plaques in brain sections (Aβ plaques): good staining
- Staining of plaques in brain sections (Aβ plaques; listed as CRANAD2): stained the plaques brightly
- Declining of brain fluorescence signals, Tg2576 vs control (Tg2576 mice; 5.0 mg/kg i.v., 11- and 19-month old): considerably slower
- Difference in F(t)/Fpre, Tg2576 vs control (Tg2576 mice; 11-month old, 120 min): 0.52
- Difference in relative fluorescence decay Irel(t), Tg2576 vs control (Tg2576 mice; 11-month old, 120 min, 5.0 mg/kg i.v.): 23%
- Difference in F(t)/Fpre, Tg2576 vs control (Tg2576 mice; 11-month old, 240 min): 0.45
- Difference in relative fluorescence decay Irel(t), Tg2576 vs control (Tg2576 mice; 11-month old, 240 min, 5.0 mg/kg i.v.): 16%
- Difference in F(t)/Fpre, Tg2576 vs control (Tg2576 mice; 19-month old, 120 min): 0.43
- Difference in relative fluorescence decay Irel(t), Tg2576 vs control (Tg2576 mice; 19-month old, 120 min, 5.0 mg/kg i.v.): 20%
- Difference in F(t)/Fpre, Tg2576 vs control (Tg2576 mice; 19-month old, 240 min): 0.65
- Difference in relative fluorescence decay Irel(t), Tg2576 vs control (Tg2576 mice; 19-month old, 240 min, 5.0 mg/kg i.v.): 30%
- Fluorescence intensity, transgenic vs control groups (Tg2576 mice; 30, 60, 120 and 240 min after injection): higher than that of the control groups
- Slower decay rate, 19-month vs 11-month old Tg2576 (Tg2576 mice; 120 min): 11%
- "Smart" amplification factor in vivo (ratio>1.0 = smart) (Tg2576 mice; 120 min and 240 min, 11- and 19-month groups): “smart” probe in vivo
- Slower decay rate, 19-month vs 11-month old Tg2576 (Tg2576 mice; 240 min): 13%
- Binding to BSA / fluorescence change with BSA (BSA): did not observe any significant change in fluorescence; also recorded: did not show any significant binding; also recorded: does not show any significant binding
